Measurements reported in ChEMBL document CHEMBL3046047, “Synthesis and evaluation of anti-inflammatory and analgesic activity of 3-[(5-substituted-1,3,4-oxadiazol-2-yl-thio)acetyl]-2H-chromen-2-ones” (Med Chem Res, 2012).

Experiments:
[1] = Acute toxicity in po dosed Mus musculus albino (mouse) up to 24 hr; format: organism-based; conditions: in vivo
[2] = tested on: Mus musculus; experiment: Acute toxicity in Mus musculus albino (mouse) assessed as mortality up to 2000 mg/kg, po after 24 hr; format: organism-based; parameters: dose 2000 mg/kg, route oral; conditions: in vivo
[3] = tested on: Rattus norvegicus; experiment: Acute Anti-inflammatory activity inRattus norvegicus albino (rat) assessed as inhibition of carrageenan-induced paw edema at 200 mg/kg, po administered 1 hr after carrageenan challenge measured after 3 hr relative to control; format: functional
[4] = tested on: Mus musculus; experiment: Acute toxicity in Mus musculus albino (mouse) assessed as alertness, touch response, and restlessness at 10 to 2000 mg/kg, po after 24 hr; format: organism-based; parameters: dose 10-2000 mg/kg, route oral; conditions: in vivo
[5] = tested on: Rattus norvegicus; experiment: Acute Anti-inflammatory activity in Rattus norvegicus albino (rat) assessed as inhibition of carrageenan-induced paw edema at 200 mg/kg, po administered 1 hr after carrageenan challenge measured after 5 hr relative to control; format: functional
[6] = tested on: Mus musculus; experiment: Analgesic activity in Mus musculus albino (mouse) assessed as protection against acetic acid-induced writhing at 200 mg/kg, po administered 30 min before acetic acid challenge measured after 15 min relative to control; format: functional
[7] = tested on: Rattus norvegicus; experiment: Toxicity inRattus norvegicus albino (rat) assessed as ulcer index at 200 mg/kg, po after 7 hr relative to control; format: organism-based; parameters: dose 200 mg/kg, route oral; conditions: in vivo
[8] = tested on: Mus musculus; experiment: Analgesic activity in Mus musculus albino (mouse) assessed as protection against acetic acid-induced writhing at 135 mg/kg, po administered 30 min before acetic acid challenge measured after 15 min relative to control; format: functional
[9] = tested on: Rattus norvegicus; experiment: Acute Anti-inflammatory activity in Rattus norvegicus albino (rat) assessed as inhibition of carrageenan-induced paw edema at 13.5 mg/kg, po administered 1 hr after carrageenan challenge measured after 3 hr relative to control; format: functional
[10] = tested on: Rattus norvegicus; experiment: Acute Anti-inflammatory activity in Rattus norvegicus albino (rat) assessed as inhibition of carrageenan-induced paw edema at 13.5 mg/kg, po administered 1 hr after carrageenan challenge measured after 5 hr relative to control; format: functional

Row | SMILES | MTD at 24 h [1] [mg/kg] | Activity [2] | inhibition in vivo at 200 mg/kg [3] [%] | Activity [4] | inhibition in vivo at 200 mg/kg [5] [%] | Activity [6] [%] | UI [7] | Activity [8] [%] | inhibition in vivo at 13.5 mg/kg [9] [%] | inhibition in vivo at 13.5 mg/kg [10] [%]
1 | O=C(CSc1nnc(-c2ccccc2O)o1)c1cc2ccccc2oc1=O | 200 | Non-toxic | 46.3 | Toxic | 48.7 |  |  |  |  | 
2 | O=C(CSc1nnc(Cc2ccccc2Nc2c(Cl)cccc2Cl)o1)c1cc2ccccc2oc1=O | 200 | Non-toxic | 81.3 | Toxic | 64.5 | 68 | 1.7 |  |  | 
3 | O=C(Cc1ccccc1Nc1c(Cl)cccc1Cl)OCc1nnc(SCC(=O)c2cc3ccccc3oc2=O)o1 | 200 | Non-toxic | 37.5 | Toxic | 26.3 |  |  |  |  | 
4 | C[C@H](c1ccc(-c2ccccc2)c(F)c1)c1nnc(SCC(=O)c2cc3ccccc3oc2=O)o1 | 200 | Non-toxic | 74.9 | Toxic | 61.6 | 60 | 2.3 |  |  | 
5 | CC(c1cccc(C(=O)c2ccccc2)c1)c1nnc(SCC(=O)c2cc3ccccc3oc2=O)o1 (stereo not given) | 200 | Non-toxic | 65.4 | Toxic | 60.9 | 73 | 3.2 |  |  | 
6 | COc1ccc2c(c1)c(Cc1nnc(SCC(=O)c3cc4ccccc4oc3=O)o1)c(C)n2C(=O)c1ccc(Cl)cc1 | 200 | Non-toxic | 56.9 | Toxic | 51.3 |  |  |  |  | 
7 | O=C(CSc1nnc(C2CCn3c(C(=O)c4ccccc4)ccc32)o1)c1cc2ccccc2oc1=O (stereo not given) | 200 | Non-toxic | 67.4 | Toxic | 71.3 | 54 | 4.4 |  |  | 
8 | CC(=O)Nc1ccc(OCc2nnc(SCC(=O)c3cc4ccccc4oc3=O)o2)cc1 | 200 | Non-toxic | 56.3 | Toxic | 43.4 |  |  |  |  | 
9 | CC(C)Cc1ccc(C(C)c2nnc(SCC(=O)c3cc4ccccc4oc3=O)o2)cc1 (stereo not given) | 200 | Non-toxic | 45 | Toxic | 46.1 |  |  |  |  | 
10 | CC(=O)Oc1ccccc1C(=O)O [ASPIRIN] |  |  |  |  |  |  |  | 69 |  | 
11 | O=C(O)Cc1ccccc1Nc1c(Cl)cccc1Cl [DICLOFENAC] |  |  |  |  |  |  | 5.5 |  | 79.5 | 75
12 | CC(C(=O)O)c1ccc(-c2ccccc2)c(F)c1 (stereo not given) [FLURBIPROFEN] |  |  |  |  |  |  | 5.3 |  |  | 
13 | CC(C(=O)O)c1cccc(C(=O)c2ccccc2)c1 (stereo not given) [KETOPROFEN] |  |  |  |  |  |  | 4.6 |  |  | 
14 | O=C(c1ccccc1)c1ccc2n1CCC2C(=O)O (stereo not given) [KETOROLAC] |  |  |  |  |  |  | 4.9 |  |  | 
